Laboratory results: patent publication US10501464B2, “7-oxo-6-(sulfooxy)-1,6-diazabicyclo[3.2.1]octane-2-carboxamide containing compounds and their use in treating bacterial infections” (WOCKHARDT LIMITED, priority 2015, dated 2019)

Experiments:
Test in all cases: Antibacterial activity, MIC by agar dilution (CLSI)
Format in all cases: cell-based
E. coli M 36 = conditions: Escherichia coli, M36, E. coli M 36; compound tested alone; read-out: MIC
Description: (§1) The biological activity of representative compounds according to the invention against various bacterial strains was investigated. In a typical study, overnight grown bacterial cultures were diluted appropriately and inoculated on the agar media containing doubling dilutions of the test compounds. Observations for growth or no growth was performed after 16-20 hours of incubation at 35±2° C. in the ambient air. The overall procedure was performed as per Clinical and Laboratory Standards Institute (CLSI) recommendations, (Clinical and Laboratory Standards Institute (CLSI), Performance Standards for Antimicrobial Susceptibility Testing, 20th Informational Supplement, M07-A9, Volume 32, No. 2, 2012). Molten Mueller Hinton Agar (BD, USA) containing serial dilutions of each antibacterial agent were poured on to the plates and allowed to solidify. Appropriate suspensions from the freshly grown cultures were prepared in normal saline so that about 10^4CFU/spot of the organism was delivered on to the drug containing agar plates using automated multipoint inoculator (Mast, UK). The plates were incubated in Biochemical oxygen demand (BOD) incubator at 37° C. for 18 hours and then examined for growth.
(§2) Method for the determination of MIC: The Minimum Inhibitory Concentration (MIC) determination for the combinations was carried out in Muller Hinton Agar (MHA) (BD, USA) according to Clinical and Laboratory Standards Institute (CLSI) recommendations, (Clinical and Laboratory Standards Institute (CLSI), Performance Standards for Antimicrobial Susceptibility Testing, 20th Informational Supplement, M 100-S20, Volume 30, No. 1, 2010). In short, the test strains were adjusted to deliver about 10^4CFU per spot with a multipoint inoculator (Applied Quality Services, UK). The plates were poured with MHA containing doubling concentration range of representative compounds according to present invention. The plates were inoculated and were incubated at 35° C. for 18 hour. […] The Table 2 depicts the antibacterial activity profile of compounds according to present invention against various multidrug resistant bacterial strains.

E. coli H 483 = conditions: Escherichia coli, H483, compound tested alone, read-out: MIC
Description: as §1, §2

E. coli M 50 = conditions: Escherichia coli, M50, E. coli M 50; compound tested alone; read-out: MIC
Description: as §1, §2

K. pneumoniae H 522 = conditions: Klebsiella pneumoniae, H522, K. pneumoniae H 522; compound tested alone; read-out: MIC
Description: as §1, §2

E. coli 13351 = conditions: Escherichia coli, 13351, E. coli 13351; compound tested alone; read-out: MIC
Description: as §1, §2

K. pneumoniae H 525 = conditions: Klebsiella pneumoniae, H525, K. pneumoniae H 525; compound tested alone; read-out: MIC
Description: as §1, §2

K. pneumoniae H 523 = conditions: Klebsiella pneumoniae, H523, K. pneumoniae H 523; compound tested alone; read-out: MIC
Description: as §1, §2

P. mirabilis S 137B = conditions: Proteus mirabilis, S137B, compound tested alone, read-out: MIC
Description: as §1, §2

E. coli M 49 = conditions: Escherichia coli, M49, E. coli M 49; compound tested alone; read-out: MIC
Description: as §1, §2

[1] = system: K. pneumoniae ATCC 700603; conditions: Klebsiella pneumoniae, ATCC700603, compound tested alone, read-out: MIC
Description: as §1, §2

E. coli M 138 = conditions: Escherichia coli, M138, E. coli M 138; compound tested alone; read-out: MIC
Description: as §1, §2

E. coli 7 MP = conditions: Escherichia coli, 7MP, compound tested alone, read-out: MIC
Description: as §1, §2

K. pneumoniae H 521 = conditions: Klebsiella pneumoniae, H521, K. pneumoniae H 521; compound tested alone; read-out: MIC
Description: as §1, §2

E. coli 13353 = conditions: Escherichia coli, 13353, E. coli 13353; compound tested alone; read-out: MIC
Description: as §1, §2

E. coli 13352 = conditions: Escherichia coli, 13352, E. coli 13352; compound tested alone; read-out: MIC
Description: as §1, §2

Row | Structure (SMILES) | MIC (E. coli M 36) [µg/mL] | MIC (E. coli H 483) [µg/mL] | MIC (E. coli M 50) [µg/mL] | MIC (K. pneumoniae H 522) [µg/mL] | MIC (E. coli 13351) [µg/mL] | MIC (K. pneumoniae H 525) [µg/mL] | MIC (K. pneumoniae H 523) [µg/mL] | MIC (P. mirabilis S 137B) [µg/mL] | MIC (E. coli M 49) [µg/mL] | MIC [1] [µg/mL] | MIC (E. coli M 138) [µg/mL] | MIC (E. coli 7 MP) [µg/mL] | MIC (K. pneumoniae H 521) [µg/mL] | MIC (E. coli 13353) [µg/mL] | MIC (E. coli 13352) [µg/mL]
1 | O=C(NOC[C@@H]1C[C@H](n2ccnc2)CN1)[C@@H]1CC[C@@H]2CN1C(=O)N2OS(=O)(=O)O [Example 10] | 1 | > 32 | 1 | 2 | 2 | 2 | 2 | > 32 | 4 | > 32 | 1 | 4 | 2 | 1 | 2
2 | O=C(NOC[C@@H]1C[C@H](n2cnnn2)CN1)[C@@H]1CC[C@@H]2CN1C(=O)N2OS(=O)(=O)O [Example 4] | 2 | > 32 | 2 | 4 | 4 | 4 | 4 | > 32 | 8 | > 32 | 2 | 4 | 4 | 2 | 2
3 | O=C(NOC[C@H]1C[C@H](n2ccnn2)CN1)[C@@H]1CC[C@@H]2CN1C(=O)N2OS(=O)(=O)O [Example 14] | 2 | > 32 | 2 | 4 | 4 | 4 | 4 | > 32 | 8 | > 32 | 2 | 4 | 4 | 2 | 4
4 | O=C(NOC[C@H]1C[C@H](n2ncnn2)CN1)[C@@H]1CC[C@@H]2CN1C(=O)N2OS(=O)(=O)O [Example 11] | 2 | > 32 | 2 | 4 | 4 | 2 | 4 | > 32 | 16 | > 32 | 2 | 8 | 4 | 2 | 2
5 | O=C(NOC[C@H]1C[C@H](n2cnnn2)CN1)[C@@H]1CC[C@@H]2CN1C(=O)N2OS(=O)(=O)O [Example 12] | 2 | > 32 | 2 | 4 | 4 | 4 | 4 | > 32 | 16 | > 32 | 2 | 8 | 4 | 2 | 2
6 | O=C(NOC[C@H]1C[C@H](n2nccn2)CN1)[C@@H]1CC[C@@H]2CN1C(=O)N2OS(=O)(=O)O [Example 13] | 1 | > 32 | 2 | 2 | 2 | 2 | 2 | > 32 | 8 | > 32 | 1 | 4 | 2 | 1 | 2
